Structures can show the parent of a compound that is named as a salt. Where two headings read alike, the source gives them in different places.
Key:
Format in all cases: cell-based
Xenopus laevis VDR = biological target: T1, Xenopus laevis VDR (Xenopus laevis, UniProt O13124); assay: luciferase reporter transactivation assay in HepG2-NTCP cells, GAL4/xlVDR LBD chimera with tk-UAS-Luc; settings: screening for activators, at least three concentrations of each drug
T1 sequence (O13124 90-422): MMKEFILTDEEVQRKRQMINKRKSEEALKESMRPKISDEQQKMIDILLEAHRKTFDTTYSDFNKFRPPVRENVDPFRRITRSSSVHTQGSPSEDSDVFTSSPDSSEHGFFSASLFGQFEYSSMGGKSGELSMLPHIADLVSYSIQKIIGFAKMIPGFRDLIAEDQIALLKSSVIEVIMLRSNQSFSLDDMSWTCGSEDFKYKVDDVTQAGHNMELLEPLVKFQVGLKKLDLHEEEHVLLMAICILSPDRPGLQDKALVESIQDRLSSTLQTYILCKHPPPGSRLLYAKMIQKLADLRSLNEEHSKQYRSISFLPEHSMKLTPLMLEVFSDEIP

Zebrafish VDR = biological target: T2, Zebrafish VDR (Danio rerio, UniProt Q9PTN2); assay: luciferase reporter transactivation assay in HepG2-NTCP cells, GAL4/zfVDR LBD chimera with tk-UAS-Luc; settings: screening for activators, at least three concentrations of each drug
T2 sequence (Q9PTN2 121-453): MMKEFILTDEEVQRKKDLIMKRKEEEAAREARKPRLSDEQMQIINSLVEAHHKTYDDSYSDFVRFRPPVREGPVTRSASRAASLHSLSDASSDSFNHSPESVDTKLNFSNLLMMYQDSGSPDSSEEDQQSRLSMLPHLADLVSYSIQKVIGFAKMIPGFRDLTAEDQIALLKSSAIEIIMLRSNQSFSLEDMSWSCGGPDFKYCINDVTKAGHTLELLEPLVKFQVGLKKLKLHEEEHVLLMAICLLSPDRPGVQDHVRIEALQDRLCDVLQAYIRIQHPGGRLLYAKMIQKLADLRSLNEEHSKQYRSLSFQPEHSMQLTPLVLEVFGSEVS

Sea lamprey VDR = biological target: T3, Sea lamprey VDR (Petromyzon marinus, UniProt Q7ZZY9)
T3 sequence (Q7ZZY9 92-406): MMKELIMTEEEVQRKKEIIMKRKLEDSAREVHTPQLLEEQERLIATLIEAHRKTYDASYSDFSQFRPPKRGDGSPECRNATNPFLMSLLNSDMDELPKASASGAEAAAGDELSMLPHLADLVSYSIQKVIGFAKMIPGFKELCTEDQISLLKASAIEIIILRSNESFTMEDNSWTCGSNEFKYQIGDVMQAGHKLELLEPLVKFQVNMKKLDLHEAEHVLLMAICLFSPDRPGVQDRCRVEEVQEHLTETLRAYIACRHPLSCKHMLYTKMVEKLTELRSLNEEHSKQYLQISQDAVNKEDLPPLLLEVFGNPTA

[1] = screening for activators, at least three concentrations of each drug

| Molecule | Effect on Xenopus laevis VDR (Xenopus laevis VDR) | Effect on zebrafish VDR (Zebrafish VDR) | Effect on sea lamprey VDR (Sea lamprey VDR; [1]) | Effect on sea lamprey VDR (Sea lamprey VDR) | Effect on Xenopus laevis VDR (Xenopus laevis VDR; listed as testosterone) | Effect on zebrafish VDR (Zebrafish VDR; listed as testosterone) |
| --- | --- | --- | --- | --- | --- | --- |
| C[C@]12CC[C@H](O)C[C@@H]1CC[C@@H]1[C@@H]2CC[C@]2(C)C(=O)CC[C@@H]12 [5a-androstan-3b-ol-17-one] | No effect | No effect | No effect | – | – | – |
| CC(C)CCC[C@@H](C)[C@H]1CC[C@H]2[C@@H]3CC[C@H]4C[C@@H](OS(=O)(=O)O)CC[C@]4(C)[C@H]3CC[C@]12C [5a-cholestan-3b-ol sulfate] | No effect | No effect | No effect | – | – | – |
| CC(O)C1CCC2C3CCC4CC(O)CCC4(C)C3CCC12C (stereo not shown) [5a-pregnan-3a,20a-diol] | No effect | No effect | No effect | – | – | – |
| CC(=O)[C@H]1CC[C@H]2[C@@H]3CC[C@H]4C[C@H](O)CC[C@]4(C)[C@H]3CC[C@]12C [5a-pregnan-3a-ol-20-one] | No effect | No effect | No effect | – | – | – |
| C[C@]12CC[C@@H](O)C[C@H]1CC[C@@H]1[C@@H]2[C@@H](O)C[C@]2(C)C(=O)CC[C@@H]12 [5b-Androstan-3a,11b-17-one] | No effect | No effect | No effect | – | – | – |
| C[C@]12CC[C@@H](O)C[C@H]1CC[C@@H]1[C@@H]2C(=O)C[C@]2(C)C(=O)CC[C@@H]12 [5b-Androstan-3a-ol-11,17-one] | No effect | No effect | No effect | – | – | – |
| C[C@@]12CCC[C@H]1[C@@H]1CC[C@@H]3C[C@@H](O)CC[C@]3(C)[C@H]1CC2 [5b-Androstan-3b-ol] | No effect | No effect | No effect | – | – | – |
| C[C@H](CCCO)[C@H]1CC[C@H]2[C@@H]3[C@H](O)C[C@@H]4C[C@H](O)CC[C@]4(C)[C@H]3C[C@H](O)[C@]12C [5b-Cholan-3a,7a,12a,24-tetrol] | No effect | No effect | No effect | – | – | – |
| CCC[C@@H](C)[C@H]1CC[C@H]2[C@@H]3[C@H](O)C[C@@H]4C[C@H](O)CC[C@]4(C)[C@H]3C[C@H](O)[C@]12C [5b-Cholan-3a,7a,12a-triol] | No effect | No effect | No effect | – | – | – |
| C[C@]12CCC(=O)C=C1CC[C@@H]1[C@@H]2CC[C@]2(C)C(=O)CC[C@@H]12 [Androstenedione] | – | No effect | No effect | – | – | – |
| C[C@H](CCC(=O)O)[C@H]1CC[C@H]2[C@@H]3[C@H](O)C[C@@H]4C[C@H](O)CC[C@]4(C)[C@H]3C[C@H](O)[C@]12C [Cholic acid] | No effect | No effect | – | – | – | – |
| C[C@]12CC[C@H]3[C@@H](CCC4=CC(=O)CC[C@@]43C)[C@@H]1CC[C@H]2O [Epitestosterone] | No effect | No effect | – | – | – | – |
| C[C@]12CC[C@@H]3c4ccc(O)cc4CC[C@H]3[C@@H]1CCC2=O [Estrone] | – | No effect | No effect | – | – | – |
| COC(C)(C)CCCC(C)C/C=C/C(C)=C/C(=O)O (stereo not shown) [Methoprene acid] | – | No effect | No effect | – | – | – |
| CC#C[C@]1(O)CC[C@H]2[C@@H]3CCC4=CC(=O)CCC4=C3[C@@H](c3ccc(N(C)C)cc3)C[C@@]21C [Mifepristone] | No effect | – | – | No effect | – | – |
| C[C@]12CC[C@H]3[C@@H](CCC4=CC(=O)CC[C@@]43C)[C@@H]1CC[C@@H]2O [Testosterone] | No effect | No effect | – | – | None of these three VDRs were activated | None of these three VDRs were activated |
| CC1=C(/C=C/C(C)=C/C=C/C(C)=C/CO)C(C)(C)CCC1 [all-trans-Retinol] | – | No effect | – | – | – | – |
| S-Farnesyl-L-cysteine methyl ester | – | No effect | No effect | – | – | – |
